Laboratory results reported in patent publication US12427134B2, “Methods of reducing the risk of cardiovascular events in a subject with atrial fibrillation and/or atrial flutter” (priority 2019, dated 2025).

Test system: hypertriglyceridemic patients with cardiovascular disease or at high risk for cardiovascular disease
Assay: REDUCE-IT: electrocardiograms, vital signs (blood pressure, pulse), weight and waist circumference
Assay type: in vivo, human
Conditions: for QTc Interval, mean change from baseline / Systolic Blood Pressure, mean change from baseline / Diastolic Blood Pressure, mean change from baseline / ECG Heart Rate, mean change from baseline / Heart Rate (vital sign), mean change from baseline / PR Interval, mean change from baseline: Safety population
Protocol: Blood pressure was measured using a standardized process: • Patient sat for ≥5 minutes with feet flat on the floor and measurement arm supported so that the midpoint of the manometer cuff was at heart level; and • Used a mercury sphygmomanometer or automatic blood pressure device with an appropriately sized cuff with the bladder centered over the brachial artery.
Blood pressure was recorded to the nearest 2 mmHg mark on the manometer or to the nearest whole number on an automatic device. A blood pressure reading was repeated 1 to 2 minutes later, and the second reading recorded to the nearest 2 mmHg mark.
Height, Weight and Body Mass Index: Height and weight were measured. Measurement of weight was performed with the patient dressed in indoor clothing, with shoes removed, and bladder empty.
Waist Circumference: Waist circumference was measured with a tape measure, as follows: Start at the top of the hip bone then bring the tape measure all the way around—level with the navel. Make sure the tape measure is snug, but without compressing the skin, and that it is parallel with the floor. Patients should not have held their breath while measuring waist circumference.
12-Lead Electrocardiogram (ECG): ECGs (standard 12-lead) were obtained annually. Site personnel made every attempt to perform a patient's ECG using the same equipment at each visit. ECGs were reviewed by the site for the detection of silent MI. Silent MIs were sent for event adjudication. All post-randomization ECGs (protocol-specified and other) were sent to the CEC for evaluation of silent MI. The 12-lead ECG parameters included Heart Rate (bpm), PR Interval (msec), QRS Interval (msec), QT Interval (msec), and QTc Interval (msec) were measured, and Overall Interpretation and Silent MI (Yes/No) were summarized for all patients at Screening (Visit 1), Randomization visit (Visit 2; Day 0) and all other follow-up visits including the last visit of the study.
A treatment-emergent PCS high value at any time was defined as a change from a value less than or equal to the defined PCS value at baseline to a PCS high value at any post-baseline measurement. A treatment-emergent PCS low value at any time was defined as a change from a value greater than or equal to the lower PCS value at baseline to a PCS low value at any post-baseline measurement.
As an additional exploratory analysis, the relationship between post-baseline biomarker values and treatment effects with the primary and key secondary endpoints were assessed by adding biomarker values (for example, at 4 months, or at 1 year, etc.) as time-dependent covariates in the Cox proportional hazards model. Diagnostic plots for the proportional hazard's assumption was evaluated. Weight was measured at the screening visit and at all follow-up visits, including the last visit of the study. Waist circumference was measured at the randomization visit (Visit 2; Day 0), Visit 5 (Day 720) and the last visit of the study. Descriptive statistics were presented by visit and treatment group for baseline, post-treatment change from baseline, and the percent change from baseline. Analysis methods for repeated measurements were used to compare percent change from baseline between treatments.

[1] = any post-baseline visit, 3683 patients with data
[2] = any post-baseline visit, 3823 patients with data
[3] = any post-baseline visit, 3834 patients with data
[4] = any post-baseline visit, 3983 patients with data

`CC/C=C\C/C=C\C/C=C\C/C=C\C/C=C\CCCC(=O)OCC` [AMR101, eicosapentaenoic acid ethyl ester] was tested. Which “QTc Interval, mean change from baseline” value (Visit 6) did it give?
The value was 3.7 ms.

What about the “Systolic Blood Pressure, mean change from baseline” value (Visit 6) of the same compound?
The value was 0.9 mmHg.

And the “Diastolic Blood Pressure, mean change from baseline” value (Visit 7)?
The value was −0.5 mmHg.

And the “ECG Heart Rate, mean change from baseline” value (from here on “ECG Heart Rate, mean change”) (Visit 7)?
Its value is 1.8 beats/minute.

And the “Heart Rate (vital sign), mean change from baseline” value (Visit 7)?
Its value is 1.5 beats/minute.

What about the “PR Interval, mean change from baseline” value (Visit 7) of the same compound?
Its value is 1.4 ms.

What about the “QTc Interval, mean change from baseline” value (Visit 7) of the same compound?
The value was 5.0 ms.

And the “Systolic Blood Pressure, mean change from baseline” value (Visit 7)?
The value was 0.8 mmHg.

What about the “Diastolic Blood Pressure, mean change from baseline” value (Visit 8) of the same compound?
The value was −1.0 mmHg.

And the “ECG Heart Rate, mean change” value (Visit 8)?
The value was 1.4 beats/minute.

What about the “Heart Rate (vital sign), mean change from baseline” value (Visit 8) of the same compound?
The value was 0.9 beats/minute.

And the “PR Interval, mean change from baseline” value (Visit 8)?
The value was 2.2 ms.

And the “QTc Interval, mean change from baseline” value (Visit 8)?
The value was 6.6 ms.

And the “Systolic Blood Pressure, mean change from baseline” value (Visit 8)?
The value was 0.4 mmHg.

And the “PR Interval, mean change from baseline” value (Visit 9 (n = 5))?
Its value is -21.2 ms.

What about the “ECG Heart Rate, mean change” value (Visit 9 (n = 7)) of the same compound?
Its value is 7.6 beats/minute.

What about the “Diastolic Blood Pressure, mean change from baseline” value (Visit 9 (n = 8)) of the same compound?
Its value is −2.7 mmHg.

And the “Heart Rate (vital sign), mean change from baseline” value (Visit 9 (n = 8))?
Its value is 2.8 beats/minute.

And the “Systolic Blood Pressure, mean change from baseline” value (Visit 9 (n = 8))?
Its value is −5.4 mmHg.

And the “PCS ECG finding: PR Interval <120 msec, % patients” value [1]?
Its value is “(7.1) %”.

And the “PCS ECG finding: PR Interval <120 msec, n patients” value [1]?
Its value is 261.

And the “PCS ECG finding: PR Interval >120 msec and increase >20 msec from baseline, % patients” value [1]?
The value was “(24.8) %”.

And the “PCS ECG finding: PR Interval >120 msec and increase >20 msec from baseline, n patients” value [1]?
Its value is 913.

And the “PCS ECG finding: QTc Interval >500 msec, % patients” value [2]?
The value was “(5.4) %”.

What about the “PCS ECG finding: QTc Interval >500 msec, n patients” value [2] of the same compound?
Its value is 208.

What about the “PCS ECG finding: QRS Interval >110 msec, % patients” value [3] of the same compound?
The value was “(29.3) %”.

What about the “PCS ECG finding: QRS Interval >110 msec, n patients” value [3] of the same compound?
The value was 1124.

And the “Diastolic Blood Pressure Decrease of ≥10 mmHg, % patients” value [4]?
Its value is “(39.4) %”.

What about the “Diastolic Blood Pressure Decrease of ≥10 mmHg, n patients” value [4] of the same compound?
Its value is 1569.

What about the “Diastolic Blood Pressure Increase of ≥10 mmHg, % patients” value [4] of the same compound?
Its value is “(36.2) %”.

And the “Diastolic Blood Pressure Increase of ≥10 mmHg, n patients” value [4]?
Its value is 1442.

What about the “Diastolic Blood Pressure PCS High ≥100 mmHg and increase of ≥10 mmHg, % patients” value [4] of the same compound?
The value was “(4.5) %”.

What about the “Diastolic Blood Pressure PCS High ≥100 mmHg and increase of ≥10 mmHg, n patients” value [4] of the same compound?
The value was 179.

And the “Diastolic Blood Pressure PCS High ≥100 mmHg, % patients” value [4]?
Its value is “(5.6) %”.

And the “Diastolic Blood Pressure PCS High ≥100 mmHg, n patients” value [4]?
Its value is 223.

What about the “Diastolic Blood Pressure PCS Low ≤50 mmHg and decrease of ≥10 mmHg, % patients” value [4] of the same compound?
Its value is “(0.9) %”.

And the “Diastolic Blood Pressure PCS Low ≤50 mmHg and decrease of ≥10 mmHg, n patients” value [4]?
The value was 35.

What about the “Diastolic Blood Pressure PCS Low ≤50 mmHg, % patients” value [4] of the same compound?
The value was “(1.1) %”.

And the “Diastolic Blood Pressure PCS Low ≤50 mmHg, n patients” value [4]?
Its value is 42.

What about the “Pulse Decrease of ≥15 beats/min, % patients” value [4] of the same compound?
The value was “(14.1) %”.

And the “Pulse Decrease of ≥15 beats/min, n patients” value [4]?
The value was 562.

What about the “Pulse Increase of ≥15 beats/min, % patients” value [4] of the same compound?
Its value is “(27.4) %”.

And the “Pulse Increase of ≥15 beats/min, n patients” value [4]?
The value was 1092.

And the “Pulse PCS High ≥90 beats/min and increase of ≥15 beats/min, % patients” value [4]?
The value was “(9.3) %”.

And the “Pulse PCS High ≥90 beats/min and increase of ≥15 beats/min, n patients” value [4]?
Its value is 370.

And the “Pulse PCS High ≥90 beats/min, % patients” value [4]?
The value was “(13.8) %”.

And the “Pulse PCS High ≥90 beats/min, n patients” value [4]?
The value was 551.

And the “Pulse PCS Low ≤50 beats/min and decrease of ≥15 beats/min, % patients” value [4]?
Its value is “(1.7) %”.

And the “Pulse PCS Low ≤50 beats/min and decrease of ≥15 beats/min, n patients” value [4]?
Its value is 68.

What about the “Pulse PCS Low ≤50 beats/min, % patients” value [4] of the same compound?
The value was “(7.4) %”.

What about the “Pulse PCS Low ≤50 beats/min, n patients” value [4] of the same compound?
The value was 293.

And the “Systolic Blood Pressure Decrease of ≥20 mmHg, % patients” value [4]?
Its value is “(25.3) %”.

And the “Systolic Blood Pressure Decrease of ≥20 mmHg, n patients” value [4]?
Its value is 1009.

And the “Systolic Blood Pressure Increase of ≥20 mmHg, % patients” value [4]?
The value was “(29.2) %”.

And the “Systolic Blood Pressure Increase of ≥20 mmHg, n patients” value [4]?
Its value is 1163.

And the “Systolic Blood Pressure PCS High ≥160 mmHg and increase of ≥20 mmHg, % patients” value [4]?
Its value is “(11.3) %”.

And the “Systolic Blood Pressure PCS High ≥160 mmHg and increase of ≥20 mmHg, n patients” value [4]?
The value was 450.

What about the “Systolic Blood Pressure PCS High ≥160 mmHg, % patients” value [4] of the same compound?
The value was “(18.0) %”.

What about the “Systolic Blood Pressure PCS High ≥160 mmHg, n patients” value [4] of the same compound?
The value was 715.

What about the “Systolic Blood Pressure PCS Low ≤90 mmHg and decrease of ≥20 mmHg, % patients” value [4] of the same compound?
The value was “(0.7) %”.

And the “Systolic Blood Pressure PCS Low ≤90 mmHg and decrease of ≥20 mmHg, n patients” value [4]?
The value was 27.

What about the “Systolic Blood Pressure PCS Low ≤90 mmHg, % patients” value [4] of the same compound?
Its value is “(1.0) %”.

And the “Systolic Blood Pressure PCS Low ≤90 mmHg, n patients” value [4]?
Its value is 40.
